From ChEMBL document CHEMBL1201862, “PubChem BioAssay data set” (2004)
Each block holds one compound with its values, some of them ahead of it. Calls of active or inactive are those of the source.

How the values were obtained:
[1] = biological target: T1, Histone-lysine N-methyltransferase NSD2 (Homo sapiens, UniProt O96028); format: biochemical
T1 sequence (O96028 whole entry): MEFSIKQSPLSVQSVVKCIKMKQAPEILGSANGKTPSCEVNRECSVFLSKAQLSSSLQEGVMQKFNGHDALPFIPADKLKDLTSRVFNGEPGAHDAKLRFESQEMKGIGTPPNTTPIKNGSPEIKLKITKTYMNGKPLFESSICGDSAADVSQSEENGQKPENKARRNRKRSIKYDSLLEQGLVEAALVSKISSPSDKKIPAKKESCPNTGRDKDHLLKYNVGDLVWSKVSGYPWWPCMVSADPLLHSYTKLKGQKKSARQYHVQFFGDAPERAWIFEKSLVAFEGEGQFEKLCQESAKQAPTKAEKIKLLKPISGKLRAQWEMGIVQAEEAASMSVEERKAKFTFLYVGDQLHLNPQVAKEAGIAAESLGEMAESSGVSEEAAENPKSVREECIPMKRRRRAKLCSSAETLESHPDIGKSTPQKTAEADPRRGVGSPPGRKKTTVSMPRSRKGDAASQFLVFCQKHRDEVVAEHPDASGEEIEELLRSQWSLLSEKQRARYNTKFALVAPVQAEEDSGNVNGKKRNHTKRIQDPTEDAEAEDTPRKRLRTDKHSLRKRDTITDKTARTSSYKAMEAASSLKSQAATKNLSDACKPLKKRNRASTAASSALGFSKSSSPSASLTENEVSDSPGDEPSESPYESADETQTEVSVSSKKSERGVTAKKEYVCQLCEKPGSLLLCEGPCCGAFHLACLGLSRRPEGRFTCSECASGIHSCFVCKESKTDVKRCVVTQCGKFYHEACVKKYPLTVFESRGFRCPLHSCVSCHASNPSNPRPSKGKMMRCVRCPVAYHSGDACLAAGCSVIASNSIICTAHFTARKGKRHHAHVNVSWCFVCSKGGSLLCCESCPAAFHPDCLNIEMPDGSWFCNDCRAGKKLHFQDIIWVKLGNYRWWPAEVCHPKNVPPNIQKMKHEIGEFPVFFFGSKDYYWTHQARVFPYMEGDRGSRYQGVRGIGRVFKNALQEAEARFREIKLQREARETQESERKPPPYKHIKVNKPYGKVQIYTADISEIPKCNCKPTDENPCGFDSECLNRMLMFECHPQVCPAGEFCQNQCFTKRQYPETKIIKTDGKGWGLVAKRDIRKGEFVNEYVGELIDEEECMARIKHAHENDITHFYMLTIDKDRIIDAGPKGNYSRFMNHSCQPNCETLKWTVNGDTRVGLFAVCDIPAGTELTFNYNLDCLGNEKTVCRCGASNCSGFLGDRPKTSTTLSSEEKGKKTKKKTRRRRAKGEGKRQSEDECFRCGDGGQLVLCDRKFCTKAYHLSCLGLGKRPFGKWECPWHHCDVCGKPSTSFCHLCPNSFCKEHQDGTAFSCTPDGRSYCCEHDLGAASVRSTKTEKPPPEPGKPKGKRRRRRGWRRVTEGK

[2] = biological target: Calcium/calmodulin-dependent protein kinase type II subunit alpha (Homo sapiens, UniProt Q9UQM7); experiment: Navigating the Kinome. Panel member name: CAMK2A; format: functional
[3] = biological target: Fibroblast growth factor receptor 3 (Homo sapiens, UniProt P22607); format: functional
[4] = biological target: Serine/threonine-protein kinase DCLK1 (Homo sapiens, UniProt O15075); format: functional;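 also: affinity for DCLK1 (listed as DCAMKL1) measured as one member of a kinome-wide kinase profiling panel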
[5] = biological target: Dual specificity mitogen-activated protein kinase kinase 2 (Homo sapiens, UniProt P36507); experiment: Navigating the Kinome. Panel member name: MAP2K2; format: functional
[6] = biological target: Dual specificity protein kinase CLK2 (Homo sapiens, UniProt P49760); format: functional
[7] = biological target: Casein kinase I isoform delta (Homo sapiens, UniProt P48730); format: functional;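 also: measured as one member (CSNK1D) of a kinome panel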
[8] = biological target: Calcium/calmodulin-dependent protein kinase type II subunit delta (Homo sapiens, UniProt Q13557); format: functional
[9] = biological target: Tyrosine-protein kinase Fer (Homo sapiens, UniProt P16591); format: functional;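 also: FER tested as one member of a kinome panel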
[10] = biological target: Death-associated protein kinase 3 (Homo sapiens, UniProt O43293); format: functional;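 also: measured as one member of a kinome-wide profiling panel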
[11] = biological target: Macrophage-stimulating protein receptor (Homo sapiens, UniProt Q04912); experiment: Navigating the Kinome. Panel member name: MST1R; format: functional
[12] = biological target: Interleukin-1 receptor-associated kinase 1 (Homo sapiens, UniProt P51617); format: functional;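 also: IRAK1 tested as one member of a kinome panel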
[13] = Concentration-dependent survival of SW480 colon cancer line, luminescence detection with CellTiter-Glo, half-maximal inhibitory concentration (AID 1117338); format: functional
[14] = SNU-C1 cell viability reduction, dose response, CellTiter-Glo luminescence (AID 1117323); format: functional, cell-based
[15] = HeLa 4N DNA content increase, dose response, cell-based, IC50 (AID 1117351); format: functional

Fibroblast growth factor receptor 3, sequence (P22607 whole entry): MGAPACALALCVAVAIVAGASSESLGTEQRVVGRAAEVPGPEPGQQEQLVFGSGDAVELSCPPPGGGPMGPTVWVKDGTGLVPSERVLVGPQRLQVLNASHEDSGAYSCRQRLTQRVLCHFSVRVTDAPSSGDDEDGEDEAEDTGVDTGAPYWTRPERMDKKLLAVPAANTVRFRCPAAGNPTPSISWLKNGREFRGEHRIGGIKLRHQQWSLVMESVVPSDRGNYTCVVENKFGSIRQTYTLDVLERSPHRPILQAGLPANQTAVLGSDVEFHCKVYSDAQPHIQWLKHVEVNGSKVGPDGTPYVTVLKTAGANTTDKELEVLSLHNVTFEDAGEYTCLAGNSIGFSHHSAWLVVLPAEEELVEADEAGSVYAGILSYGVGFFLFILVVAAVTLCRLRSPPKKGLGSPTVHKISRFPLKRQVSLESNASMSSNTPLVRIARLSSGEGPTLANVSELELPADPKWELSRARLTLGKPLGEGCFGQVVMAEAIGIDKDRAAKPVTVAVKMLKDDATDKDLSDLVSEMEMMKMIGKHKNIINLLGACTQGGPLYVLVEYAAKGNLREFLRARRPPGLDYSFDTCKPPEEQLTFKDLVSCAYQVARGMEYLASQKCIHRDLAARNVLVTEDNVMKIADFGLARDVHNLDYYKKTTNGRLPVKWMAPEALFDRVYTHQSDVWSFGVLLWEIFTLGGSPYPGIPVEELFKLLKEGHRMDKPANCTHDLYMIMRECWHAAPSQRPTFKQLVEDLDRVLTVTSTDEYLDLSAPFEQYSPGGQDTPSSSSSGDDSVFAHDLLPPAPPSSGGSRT
Macrophage-stimulating protein receptor, sequence (Q04912 25-304 limits assumed): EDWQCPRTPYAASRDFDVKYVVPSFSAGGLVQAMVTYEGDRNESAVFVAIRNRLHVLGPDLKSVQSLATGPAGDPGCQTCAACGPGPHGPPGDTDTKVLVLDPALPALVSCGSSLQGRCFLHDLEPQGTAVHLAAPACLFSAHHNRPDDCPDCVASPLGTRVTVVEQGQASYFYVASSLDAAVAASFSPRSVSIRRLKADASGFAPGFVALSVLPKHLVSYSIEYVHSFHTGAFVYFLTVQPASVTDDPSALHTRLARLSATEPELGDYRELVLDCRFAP
Macrophage-stimulating protein receptor, sequence (Q04912 310-1400 limits assumed): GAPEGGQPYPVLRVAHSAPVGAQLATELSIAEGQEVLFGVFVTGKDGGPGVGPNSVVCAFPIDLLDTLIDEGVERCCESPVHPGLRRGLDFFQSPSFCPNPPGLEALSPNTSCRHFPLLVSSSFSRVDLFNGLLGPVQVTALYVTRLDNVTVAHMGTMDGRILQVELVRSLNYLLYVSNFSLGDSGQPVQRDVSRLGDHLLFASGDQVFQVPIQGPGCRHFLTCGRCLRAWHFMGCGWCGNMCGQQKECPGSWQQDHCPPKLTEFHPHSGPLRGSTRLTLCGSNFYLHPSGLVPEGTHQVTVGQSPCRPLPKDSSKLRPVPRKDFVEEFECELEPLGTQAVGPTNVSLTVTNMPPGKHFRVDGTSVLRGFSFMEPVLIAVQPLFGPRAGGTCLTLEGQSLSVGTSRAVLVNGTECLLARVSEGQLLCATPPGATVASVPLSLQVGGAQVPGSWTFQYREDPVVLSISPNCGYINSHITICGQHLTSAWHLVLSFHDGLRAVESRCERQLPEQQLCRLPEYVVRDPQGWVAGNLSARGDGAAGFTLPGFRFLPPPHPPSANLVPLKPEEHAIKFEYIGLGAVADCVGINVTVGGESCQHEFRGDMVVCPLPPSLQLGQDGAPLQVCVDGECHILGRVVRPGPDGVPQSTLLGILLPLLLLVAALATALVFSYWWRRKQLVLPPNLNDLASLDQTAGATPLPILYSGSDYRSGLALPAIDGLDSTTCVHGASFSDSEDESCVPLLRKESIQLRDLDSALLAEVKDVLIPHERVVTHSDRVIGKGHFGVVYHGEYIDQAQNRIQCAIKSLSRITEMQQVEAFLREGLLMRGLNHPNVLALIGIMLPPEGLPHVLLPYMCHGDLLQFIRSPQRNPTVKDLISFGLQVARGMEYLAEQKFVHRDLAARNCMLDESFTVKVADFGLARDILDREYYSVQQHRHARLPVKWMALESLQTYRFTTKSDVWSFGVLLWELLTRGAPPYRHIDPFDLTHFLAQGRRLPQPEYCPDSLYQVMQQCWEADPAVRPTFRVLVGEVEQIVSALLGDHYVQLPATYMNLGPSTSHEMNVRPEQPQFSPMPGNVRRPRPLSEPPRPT
Interleukin-1 receptor-associated kinase 1, sequence (P51617 whole entry): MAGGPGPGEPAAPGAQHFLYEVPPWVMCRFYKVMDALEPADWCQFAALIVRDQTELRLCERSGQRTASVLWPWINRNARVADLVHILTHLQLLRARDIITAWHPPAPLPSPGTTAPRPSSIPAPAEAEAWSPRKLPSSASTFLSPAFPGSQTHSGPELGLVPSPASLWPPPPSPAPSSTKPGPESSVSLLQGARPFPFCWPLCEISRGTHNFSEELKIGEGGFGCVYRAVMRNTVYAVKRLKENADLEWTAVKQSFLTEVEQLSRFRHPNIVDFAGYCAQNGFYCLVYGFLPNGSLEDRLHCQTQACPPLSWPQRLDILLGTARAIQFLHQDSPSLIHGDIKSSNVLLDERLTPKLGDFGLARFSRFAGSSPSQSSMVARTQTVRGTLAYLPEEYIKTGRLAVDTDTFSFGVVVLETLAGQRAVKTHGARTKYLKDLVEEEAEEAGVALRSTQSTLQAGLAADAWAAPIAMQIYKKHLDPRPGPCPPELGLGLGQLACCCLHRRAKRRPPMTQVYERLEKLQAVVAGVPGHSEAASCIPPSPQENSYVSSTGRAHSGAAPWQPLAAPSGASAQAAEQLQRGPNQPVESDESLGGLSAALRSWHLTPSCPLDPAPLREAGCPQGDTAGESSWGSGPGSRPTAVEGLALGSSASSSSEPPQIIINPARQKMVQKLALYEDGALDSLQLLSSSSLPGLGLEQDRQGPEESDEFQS
Dual specificity mitogen-activated protein kinase kinase 2, sequence (P36507 whole entry): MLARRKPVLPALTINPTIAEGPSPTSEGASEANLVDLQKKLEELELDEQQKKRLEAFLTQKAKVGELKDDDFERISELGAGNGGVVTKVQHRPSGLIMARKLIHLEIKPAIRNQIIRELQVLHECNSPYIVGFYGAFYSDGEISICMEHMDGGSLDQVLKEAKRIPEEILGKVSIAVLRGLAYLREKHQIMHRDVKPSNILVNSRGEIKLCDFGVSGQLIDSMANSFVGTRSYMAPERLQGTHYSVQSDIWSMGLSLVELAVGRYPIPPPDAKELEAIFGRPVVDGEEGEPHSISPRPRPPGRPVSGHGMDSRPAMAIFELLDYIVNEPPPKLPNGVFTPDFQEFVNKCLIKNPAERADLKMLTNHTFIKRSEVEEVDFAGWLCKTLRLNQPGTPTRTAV
Dual specificity protein kinase CLK2, sequence (P49760 whole entry, canonical isoform): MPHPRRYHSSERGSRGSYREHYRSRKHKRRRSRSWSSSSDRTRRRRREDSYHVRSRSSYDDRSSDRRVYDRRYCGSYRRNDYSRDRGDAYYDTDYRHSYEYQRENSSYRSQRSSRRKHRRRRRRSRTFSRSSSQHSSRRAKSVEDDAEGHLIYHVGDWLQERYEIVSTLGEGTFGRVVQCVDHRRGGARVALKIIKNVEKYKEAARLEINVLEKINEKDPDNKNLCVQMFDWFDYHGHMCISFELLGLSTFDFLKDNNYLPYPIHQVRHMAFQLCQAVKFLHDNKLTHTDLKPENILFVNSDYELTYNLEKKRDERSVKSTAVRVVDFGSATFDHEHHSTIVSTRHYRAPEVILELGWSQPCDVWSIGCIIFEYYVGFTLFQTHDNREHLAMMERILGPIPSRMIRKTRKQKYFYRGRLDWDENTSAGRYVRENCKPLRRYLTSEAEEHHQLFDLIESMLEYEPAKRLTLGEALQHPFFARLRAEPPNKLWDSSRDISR
Calcium/calmodulin-dependent protein kinase type II subunit delta, sequence (Q13557 whole entry): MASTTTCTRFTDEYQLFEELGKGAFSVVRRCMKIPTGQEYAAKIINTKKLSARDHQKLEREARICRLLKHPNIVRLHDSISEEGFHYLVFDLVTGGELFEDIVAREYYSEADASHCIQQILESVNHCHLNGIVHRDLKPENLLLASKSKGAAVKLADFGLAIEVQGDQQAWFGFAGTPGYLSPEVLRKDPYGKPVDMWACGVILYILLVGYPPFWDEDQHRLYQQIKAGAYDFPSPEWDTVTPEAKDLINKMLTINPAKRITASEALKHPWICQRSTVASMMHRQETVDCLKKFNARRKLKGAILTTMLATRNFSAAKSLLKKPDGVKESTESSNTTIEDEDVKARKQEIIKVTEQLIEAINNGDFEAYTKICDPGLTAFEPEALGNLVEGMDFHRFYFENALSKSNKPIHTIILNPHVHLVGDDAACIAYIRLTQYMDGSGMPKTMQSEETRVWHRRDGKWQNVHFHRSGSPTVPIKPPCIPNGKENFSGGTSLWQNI
Casein kinase I isoform delta, sequence (P48730 whole entry, canonical isoform): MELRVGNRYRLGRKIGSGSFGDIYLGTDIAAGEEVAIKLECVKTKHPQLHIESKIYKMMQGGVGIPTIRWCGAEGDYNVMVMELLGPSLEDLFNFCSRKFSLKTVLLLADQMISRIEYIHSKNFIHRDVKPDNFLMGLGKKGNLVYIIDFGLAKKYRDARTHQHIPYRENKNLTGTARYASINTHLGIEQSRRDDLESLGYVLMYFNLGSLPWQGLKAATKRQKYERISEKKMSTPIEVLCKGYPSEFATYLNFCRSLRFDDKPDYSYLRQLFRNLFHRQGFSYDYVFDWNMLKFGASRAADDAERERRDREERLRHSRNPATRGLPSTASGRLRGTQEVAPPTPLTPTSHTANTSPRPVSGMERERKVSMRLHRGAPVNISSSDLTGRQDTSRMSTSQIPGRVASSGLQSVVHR

Structure (SMILES): O=C1C=C(N2CCOCC2)c2ccccc2C1=O
AC50 [1]: 1.38 µM (active)

Ki [2]: 6.31 µM (active)
Ki [3]: > 2 µM (inactive)
Ki [4]: > 10 µM (inactive)
Ki [5]: > 3.98 µM (inactive)
Ki [6]: > 5.01 µM (inactive)
Ki [7]: > 7.94 µM (inactive)
Ki [8]: > 6.31 µM (inactive)
Ki [9]: > 1.58 µM (inactive)
Ki [11]: > 3.98 µM (inactive)
Ki [12]: > 7.94 µM (inactive)
Structure (SMILES): N#Cc1ccc2[nH]c(O)c(-c3ccc(CN4CCOCC4)cn3)c2c1 [AZD-1080]
Ki [10]: > 3.98 µM (inactive)

Structure (SMILES): CCc1oc2ccccc2c1C(=O)c1cc(Br)c(O)c(Br)c1 [BENZBROMARONE]
IC50 [13]: 1.74 µM (active)
IC50 [14]: 0.105 µM (active)
IC50 [15]: > 10 µM (inactive)
